Data from paper PMC9855884, “Glycosylated Lipopeptides—Synthesis and Evaluation of Antimicrobial Activity and Cytotoxicity” (Biomolecules, 2023).
Values after ≈ are worked out from the molar mass of the structure shown. Where a SMILES comes first, the peptide text is derived from it. The star is where a group is joined. βGlcNAc = CC(=O)N[C@@H]1[C@@H](O)[C@H](O)[C@@H](CO)O[C@H]1*; Stearoyl = CCCCCCCCCCCCCCCCCC(=O)*; Palmitoyl = CCCCCCCCCCCCCCCC(=O)*; Myristoyl = CCCCCCCCCCCCCC(=O)*

Experiments:
[1] = Determination of peptide hydrophobicity with RP-HPLC (adjusted retention time); format: physicochemical; settings: RP-HPLC as measure of hydrophobicity; Waters X-Bridge Shield RP-18 3.0 × 100 mm, 3.5 μm; linear 20–80% acetonitrile in water over 30 min, 0.1% TFA; 0.5 mL/min; 25.0 °C; peptide 1 g/L in water (0.1% TFA); UV 214 nm; triplicate
Procedure: To determine peptide hydrophobicity, a Waters Alliance e2695 system with a Waters 2998 PDA Detector was used. All analyses were carried out on a Waters X-Bridge Shield RP-18 column (3.0 × 100 mm, 3.5 μm particle size, 130 Å pore size). The peptides were dissolved in water (0.1% TFA, v/v) up to a concentration of 1 g/L. UV detection at 214 nm was used, and samples (10 μL) were eluted with a linear 20–80% acetonitrile gradient in deionized water over 30 min at 25.0 ± 0.1 °C. The mobile phase flow rate was 0.5 mL/min. Both eluents contained 0.1% (v/v) of TFA. Each peptide sample was analyzed in triplicate. Maximum standard deviation and coefficient of variation were 0.046 and 0.23%, respectively.
After synthesis and purification, all the products were analyzed with MS and HPLC to confirm purity and identity of the compounds. […] The chromatographic analyses were performed with RP-HPLC; retention time refers to hydrophobicity of the lipopeptide.

[2] = test system: K. pneumoniae ATCC 700603; format: cell-based, Klebsiella pneumoniae; settings: ATCC 700603, 18 h
Procedure: (§1) The Acinetobacter baumannii ATCC BAA-1605, Enterococcus faecium ATCC 700221, Klebsiella aerogenes ATCC 13048, Klebsiella pneumoniae ATCC 700603, Pseudomonas aeruginosa ATCC 9027, Staphylococcus aureus ATCC 33591, Candida glabrata ATCC 15126, strains were acquired from the American Type Culture Collection (ATCC). All the strains were stored at −80 °C in Roti-Store cryo vials and were transferred into fresh Mueller–Hinton broth (MHB, Becton Dickinson, Warsaw, Poland) for bacteria or RPMI-1640 (Sigma-Aldrich, Steinheim, Germany) for fungi before the tests and incubated for 24 h at 37 °C. Then, the cultures were seeded on the Mueller–Hinton agar (BioMaxima, Lublin, Poland) or Sabouraud dextrose agar (SDA, BioMaxima, Lublin, Poland) plates, respectively, and incubated as just mentioned. These agar cultures were used for further microbiological assays. Cell densities for all assays were adjusted spectrophotometrically (Multiskan GO Microplate Spectrophotometer, Thermo Fisher Scientific, Vantaa, Finland) at 600 and 530 nm for bacteria and fungi, respectively.
(§2) The MICs were determined using a broth microdilution method according to the Clinical and Laboratory Standard Institute guidelines. For this purpose, initial inoculums of bacteria (5 × 10^5 CFU/mL) in MHB and yeasts (2 × 10^3 CFU/mL) in RPMI-1640 with 2% D-glucose were exposed to the ranging concentration of lipopeptides (1–512 μg/mL) and incubated at 37 °C for 18 h and 24 h, respectively. The experiments were conducted on 96-well microtiter polystyrene plates (Kartell, Italy). The growth was assessed visually after incubation and the MIC was assumed as the lowest peptide concentration at which a noticeable growth of microorganisms was inhibited. All experiments were conducted in triplicate.

[3] = test system: A. baumannii ATCC BAA 1605; format: cell-based, Acinetobacter baumannii; settings: ATCC BAA 1605, 18 h
Procedure: as §1, §2

[4] = test system: K. aerogenes ATCC 13048; format: cell-based, Klebsiella aerogenes; settings: ATCC 13048, 18 h
Procedure: as §1, §2

[5] = MTT assay, cytotoxicity; format: cell-based, human; settings: human, HaCaT keratinocytes, 24 h incubation at 37 °C, 0.5–500 μg/mL, six replicates per concentration, repeated at least twice
Procedure: To evaluate the cytotoxicity of the test peptides (IC50), the classic MTT assay on 96-well plates was performed for human keratinocytes (HaCaT) which were acquired from the ATCC. The assay was based on colorimetric determination of the cell metabolic activity where the color intensity reflected the number of live cells that could be measured spectrophotometrically. The cell line was cultured in a Dulbecco’s modified Eagle Medium (Invitrogen) supplemented with 10% fetal bovine serum (v/v), 100 units/mL of penicillin, 100 μg/mL of streptomycin, and 2 mM L-glutamine and was kept at 37 °C in a humidified 5% CO2 incubator. Briefly, a day after plating of 500 cells per well, a series of concentrations (0.5–500 μg/mL) of the test compounds were applied. DMSO was added to the control cells at a final concentration of 1.0% (v/v), which was related to the maximum concentration of the solvent compounds used in the experiment. After 24 h of incubation at 37 °C (humidified 5% CO2 incubator) with the peptides, a medium containing 1 mg/mL of MTT was added to the wells up to a final concentration of 0.5 mg/mL. Subsequently, the plates were incubated at 37 °C for 4 h. Then, the medium was aspirated, and the formazan product was solubilized with DMSO. The background absorbance at 630 nm was subtracted from that at 570 nm for each well (Epoch, BioTek Instruments, Winooski, VT, USA). Six replicates were conducted for each concentration. All experiments were repeated at least twice and the resulting IC50 values were calculated with a GraFit 7 software (v. 7.0, Erithacus, Berkley, CA, USA).
The selectivity indexes were calculated for all the strains as IC50/MIC. According to IC50, in most cases, glycosylation caused only a slight decrease in toxicity. However, in contrast with SI calculated for HC50, the differences between USCLs and gUSCLs are not so distinct. […] Moreover, toxicity of USCLs and gUSCLs is high and exceeds their antimicrobial activity. The lipopetides were not selective against Gram-negative strains (K. pneumoniae, A. baumannii, P. aeruginosa, K. aerogenes) over human cells. A few USCLs were selective (SI > 1) against E. faecium and S. aureus with SI up to 1.87; and some gUSCLs were selective against E. faecium but not against S. aureus, with SI between 0.63 and 1.73. […] In this case, SI of gUSCLs was noticeably […] than that of corresponding parent USCLs (2.07, 1.99, 2.67 vs. 2.53, 2.36, 3.46, respectively). Selectivity indexes were plotted against adjusted retention time (Figures S15–S21). A moderate linear correlation was found in USCLs and K. pneumoniae, C. glabrata, and gUSCLs and K. pneumoniae, K. aerogenes (R^2 between 0.6064 and 0.6481). A relatively high linear correlation was obtained for USCLs and K. aerogenes (R^2 of 0.8214) and also for gUSCLs and C. glabrata (R^2 of 0.9223).

Adjusted Retention Time [1]	MIC [2]	MIC [3]	MIC [4]	SMILES	IC50 at 24 h [5]
15.96 min	512 µg/mL (≈ 817 µM)	64 µg/mL (≈ 102 µM)	512 µg/mL (≈ 817 µM)	CCCCCCCCCCCCCC(=O)N[C@@H](CCCNC(=N)N)C(=O)N[C@@H](CO)C(=O)N[C@@H](CCCNC(=N)N)C(N)=O [Peptide 2, C14-RSR-NH2] (Myristoyl-Arg-Ser-Arg-NH2)	15 ± 2.05 µg/mL (≈ 23.9 µM)
15.91 min	512 µg/mL (≈ 817 µM)	64 µg/mL (≈ 102 µM)	512 µg/mL (≈ 817 µM)	CCCCCCCCCCCCCC(=O)N[C@@H](CCCNC(=N)N)C(=O)N[C@@H](CCCNC(=N)N)C(=O)N[C@@H](CO)C(N)=O [Peptide 3, C14-RRS-NH2] (Myristoyl-Arg-Arg-Ser-NH2)	14.3 ± 1.96 µg/mL (≈ 22.8 µM)
20.55 min	512 µg/mL (≈ 782 µM)	32 µg/mL (≈ 48.9 µM)	16 µg/mL (≈ 24.4 µM)	CCCCCCCCCCCCCCCC(=O)N[C@@H](CO)C(=O)N[C@@H](CCCNC(=N)N)C(=O)N[C@@H](CCCNC(=N)N)C(N)=O [Peptide 4, C16-SRR-NH2] (Palmitoyl-Ser-Arg-Arg-NH2)	4.02 ± 1.17 µg/mL (≈ 6.14 µM)
19.93 min	64 µg/mL (≈ 97.7 µM)	32 µg/mL (≈ 48.9 µM)	32 µg/mL (≈ 48.9 µM)	CCCCCCCCCCCCCCCC(=O)N[C@@H](CCCNC(=N)N)C(=O)N[C@@H](CO)C(=O)N[C@@H](CCCNC(=N)N)C(N)=O [Peptide 5, C16-RSR-NH2] (Palmitoyl-Arg-Ser-Arg-NH2)	5.72 ± 2.27 µg/mL (≈ 8.73 µM)
19.89 min	32 µg/mL (≈ 48.9 µM)	32 µg/mL (≈ 48.9 µM)	64 µg/mL (≈ 97.7 µM)	CCCCCCCCCCCCCCCC(=O)N[C@@H](CCCNC(=N)N)C(=O)N[C@@H](CCCNC(=N)N)C(=O)N[C@@H](CO)C(N)=O [Peptide 6, C16-RRS-NH2] (Palmitoyl-Arg-Arg-Ser-NH2)	7.84 ± 1.44 µg/mL (≈ 12 µM)
24.78 min	16 µg/mL (≈ 23.4 µM)	32 µg/mL (≈ 46.9 µM)	16 µg/mL (≈ 23.4 µM)	CCCCCCCCCCCCCCCCCC(=O)N[C@@H](CO)C(=O)N[C@@H](CCCNC(=N)N)C(=O)N[C@@H](CCCNC(=N)N)C(N)=O [Peptide 7, C18-SRR-NH2] (Stearoyl-Ser-Arg-Arg-NH2)	8.28 ± 1.18 µg/mL (≈ 12.1 µM)
24.13 min	32 µg/mL (≈ 46.9 µM)	64 µg/mL (≈ 93.7 µM)	32 µg/mL (≈ 46.9 µM)	CCCCCCCCCCCCCCCCCC(=O)N[C@@H](CCCNC(=N)N)C(=O)N[C@@H](CO)C(=O)N[C@@H](CCCNC(=N)N)C(N)=O [Peptide 8, C18-RSR-NH2] (Stearoyl-Arg-Ser-Arg-NH2)	7.97 ± 1.51 µg/mL (≈ 11.7 µM)
24.04 min	16 µg/mL (≈ 23.4 µM)	32 µg/mL (≈ 46.9 µM)	32 µg/mL (≈ 46.9 µM)	CCCCCCCCCCCCCCCCCC(=O)N[C@@H](CCCNC(=N)N)C(=O)N[C@@H](CCCNC(=N)N)C(=O)N[C@@H](CO)C(N)=O [Peptide 9, C18-RRS-NH2] (Stearoyl-Arg-Arg-Ser-NH2)	10.7 ± 1.61 µg/mL (≈ 15.6 µM)
14.47 min	>512 µg/mL	128 µg/mL (≈ 154 µM)	>512 µg/mL	CCCCCCCCCCCCCC(=O)N[C@@H](CO[C@@H]1O[C@H](CO)[C@@H](O)[C@H](O)[C@H]1NC(C)=O)C(=O)N[C@@H](CCCNC(=N)N)C(=O)N[C@@H](CCCNC(=N)N)C(N)=O [Peptide 10, C14-S(GlcNAc)RR-NH2] (Myristoyl-Ser(βGlcNAc)-Arg-Arg-NH2)	32.1 ± 6.26 µg/mL (≈ 38.7 µM)
14.82 min	>512 µg/mL	64 µg/mL (≈ 77.1 µM)	>512 µg/mL	CCCCCCCCCCCCCC(=O)N[C@@H](CCCNC(=N)N)C(=O)N[C@@H](CO[C@@H]1O[C@H](CO)[C@@H](O)[C@H](O)[C@H]1NC(C)=O)C(=O)N[C@@H](CCCNC(=N)N)C(N)=O [Peptide 11, C14-RS(GlcNAc)R-NH2] (Myristoyl-Arg-Ser(βGlcNAc)-Arg-NH2)	25.2 ± 3.47 µg/mL (≈ 30.3 µM)
15.01 min	>512 µg/mL	64 µg/mL (≈ 77.1 µM)	>512 µg/mL	CCCCCCCCCCCCCC(=O)N[C@@H](CCCNC(=N)N)C(=O)N[C@@H](CCCNC(=N)N)C(=O)N[C@@H](CO[C@@H]1O[C@H](CO)[C@@H](O)[C@H](O)[C@H]1NC(C)=O)C(N)=O [Peptide 12, C14-RRS(GlcNAc)-NH2] (Myristoyl-Arg-Arg-Ser(βGlcNAc)-NH2)	20.5 ± 3.05 µg/mL (≈ 24.6 µM)
18.26 min	256 µg/mL (≈ 298 µM)	32 µg/mL (≈ 37.3 µM)	512 µg/mL (≈ 597 µM)	CCCCCCCCCCCCCCCC(=O)N[C@@H](CO[C@@H]1O[C@H](CO)[C@@H](O)[C@H](O)[C@H]1NC(C)=O)C(=O)N[C@@H](CCCNC(=N)N)C(=O)N[C@@H](CCCNC(=N)N)C(N)=O [Peptide 13, C16-S(GlcNAc)RR-NH2] (Palmitoyl-Ser(βGlcNAc)-Arg-Arg-NH2)	10.6 ± 2.04 µg/mL (≈ 12.4 µM)
18.63 min	128 µg/mL (≈ 149 µM)	32 µg/mL (≈ 37.3 µM)	64 µg/mL (≈ 74.6 µM)	CCCCCCCCCCCCCCCC(=O)N[C@@H](CCCNC(=N)N)C(=O)N[C@@H](CO[C@@H]1O[C@H](CO)[C@@H](O)[C@H](O)[C@H]1NC(C)=O)C(=O)N[C@@H](CCCNC(=N)N)C(N)=O [Peptide 14, C16-RS(GlcNAc)R-NH2] (Palmitoyl-Arg-Ser(βGlcNAc)-Arg-NH2)	14.1 ± 3.48 µg/mL (≈ 16.4 µM)
18.80 min	256 µg/mL (≈ 298 µM)	32 µg/mL (≈ 37.3 µM)	256 µg/mL (≈ 298 µM)	CCCCCCCCCCCCCCCC(=O)N[C@@H](CCCNC(=N)N)C(=O)N[C@@H](CCCNC(=N)N)C(=O)N[C@@H](CO[C@@H]1O[C@H](CO)[C@@H](O)[C@H](O)[C@H]1NC(C)=O)C(N)=O [Peptide 15, C16-RRS(GlcNAc)-NH2] (Palmitoyl-Arg-Arg-Ser(βGlcNAc)-NH2)	5.16 ± 1.32 µg/mL (≈ 6.01 µM)
